According to BindingDB's records for doi:10.7270/Q2GF0RZ3 (Burnham Center For Chemical Genomics, 2010):

What follows are compounds tested against G-protein coupled receptor 55 (Homo sapiens, UniProt Q9Y2T6) (assay: GPR55 agonists via beta-arrestin recruitment, primary screen, imaging, U2OS cells, beta-arrestin-GFP redistribution (AID 1961)).
G-protein coupled receptor 55, sequence (Q9Y2T6 whole entry): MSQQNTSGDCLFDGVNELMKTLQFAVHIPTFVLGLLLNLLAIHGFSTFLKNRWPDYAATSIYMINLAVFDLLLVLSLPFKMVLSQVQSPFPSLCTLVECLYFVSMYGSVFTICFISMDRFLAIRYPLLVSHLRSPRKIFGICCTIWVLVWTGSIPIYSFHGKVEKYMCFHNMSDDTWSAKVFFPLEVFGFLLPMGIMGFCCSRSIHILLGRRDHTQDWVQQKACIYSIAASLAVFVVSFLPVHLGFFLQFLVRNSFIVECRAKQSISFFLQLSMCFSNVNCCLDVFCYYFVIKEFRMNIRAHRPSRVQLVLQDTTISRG
COc1ccc(C2c3sc4nc(C)cc(C)c4c3OC(=N)C2C#N)cc1 (configuration not stated) [2-amino-4-(4-methoxyphenyl)-7,9-dimethyl-4H-pyrano[2',3':4,5]thieno[2,3-b]pyridine-3-carbonitrile] gave an EC50 of 3.41 µM. In the case of C=c1[nH]n(-c2ccc(C(=O)O)cc2)c(=O)c1=Cc1ccc(-c2ccccc2F)o1 [4-((4E)-4-{[5-(2-fluorophenyl)-2-furyl]methylene}-3-methyl-5-oxo-4,5-dihydro-1H-pyrazol-1-yl)benzoic acid], the EC50 is reported as 21.3 µM. Work on COC1=CC(=Cc2c(-c3ccccc3)[nH]oc2=O)C=C(Cl)C1=O [4-[(Z)-(3-chloro-5-methoxy-4-oxo-1-cyclohexa-2,5-dienylidene)methyl]-3-phenyl-2H-isoxazol-5-one] yielded an EC50 of 32 µM. For Cc1ccc(NS(=O)(=O)c2cc([N+](=O)[O-])ccc2N=NCc2sc(N3CCOCC3)nc2-c2ccccc2)c(C)c1 [MLS000408840], the EC50 was 0.5 µM. Work on CC(C)CN1C(=O)/C(=N\NC(=O)c2cccc(S(=O)(=O)N3CCCCC3)c2)c2ccccc21 [MLS000417389] yielded an EC50 of 4.75 µM. For N#CC1C(=O)NC(c2ccc(-c3cc(Cl)ccc3Cl)o2)N(c2ccccc2)C1=S (configuration not stated) [MLS000592167], the EC50 was 32 µM. N#CC1C(=N)OC2=C(CC/C2=C\c2ccccc2)C1c1ccccc1 (configuration not stated) [SMR000176483] showed an EC50 of 32 µM.
